Laboratory results from BindingDB's records for doi:10.1016/j.ejmech.2020.112223 (2020).

Assay: Inhibition of Influenza A virus (A/PR 8/34 (H1N1)) hemagglutinin transfected in human HeLa cells assessed as reduction in low pH-indued polykaryon formation preincubated for 15 mins followed by pH 5.2 buffer addition and measured after 5 mins by giemsa staining based microscopic analysis

COC(=O)C[C@H](NC(=O)OC(C)(C)C)C(=O)N(Cc1ccc(F)cc1)C1(C(=O)NCc2ccccc2)CCN(Cc2ccccc2)CC1
IC50: 12 µM
